Biological target: T1, human HIF-PHD2 (Homo sapiens, UniProt Q9GZT9)
T1 construct: FLAG-tagged full length PHD2 expressed in and purified from baculovirus-infected Sf9 cells; FLAG; made in house; host or cells: baculovirus-infected Sf9 cells
Experiment: HIF-PHD2 inhibition assay (hydroxylation of HIF-1α peptide, time resolved fluorescence)
Type: biochemical
Conditions: FLAG-tagged full length PHD2; 0.2 μM 2-oxoglutarate, 0.5 μM HIF-1α peptide
Protocol: To each well of a 384-well plate, 1 μL of test compounds in DMSO (final concentration ranging from 0.3 nM to 10 uM) were added into 20 μl of assay buffer (50 mM Tris pH 7.4/0.01% Tween-20/0.1 mg/ml bovine serum albumin/10 μM ferrous sulfate/1 mM sodium ascorbate/20 μg/ml catalase) containing 0.15 μg/ml FLAG-tagged full length PHD2 expressed in and purified from baculovirus-infected Sf9 cells. […] Purif.

T1 sequence (Q9GZT9 whole entry): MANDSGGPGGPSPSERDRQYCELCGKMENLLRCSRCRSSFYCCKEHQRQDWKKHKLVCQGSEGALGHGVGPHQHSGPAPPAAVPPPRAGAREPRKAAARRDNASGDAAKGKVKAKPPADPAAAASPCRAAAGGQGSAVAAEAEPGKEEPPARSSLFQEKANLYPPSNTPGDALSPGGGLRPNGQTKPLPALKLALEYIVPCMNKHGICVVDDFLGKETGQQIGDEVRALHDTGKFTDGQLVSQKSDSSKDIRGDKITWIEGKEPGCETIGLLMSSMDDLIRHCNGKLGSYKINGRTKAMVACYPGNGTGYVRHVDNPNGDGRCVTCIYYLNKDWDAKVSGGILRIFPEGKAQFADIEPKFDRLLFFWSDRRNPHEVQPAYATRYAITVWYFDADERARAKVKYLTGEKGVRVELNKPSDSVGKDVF

| IC50 [nM] | SMILES |
| --- | --- |
| 43 | O=C(O)CNC(=O)c1c(O)c2c(n(Cc3nc4ccccc4s3)c1=O)C1CCC2C1 (racemic) [Example 82, 2-((5S,8R)-1-(benzo[d]thiazol-2-ylmethyl)-4-hydroxy-2-oxo-1,2,5,6,7,8-hexahydro-5,8-methanoquinoline-3-carboxamido)acetic acid] |
| 15.6 | COc1ccc(Cn2c3c(c(O)c(C(=O)NCC(=O)O)c2=O)COCC3)cc1 [Example 6, 2-(4-hydroxy-1-(4-methoxybenzyl)-2-oxo-2,5,7,8-tetrahydro-1H-pyrano[4,3-b]pyridine-3-carboxamido)acetic acid] |
| 10.3 | O=C(O)CNC(=O)c1c(O)c2c(n(Cc3ccc(F)cc3F)c1=O)CCOC2 [Example 16, 2-(1-(2,4-difluorobenzyl)-4-hydroxy-2-oxo-2,5,7,8-tetrahydro-1H-pyrano[4,3-b]pyridine-3-carboxamido)acetic acid] |
| 19.2 | O=C(O)CNC(=O)c1c(O)c2c(n(Cc3ccc(Cl)cc3F)c1=O)CCOC2 [Example 18, 2-(1-(4-chloro-2-fluorobenzyl)-4-hydroxy-2-oxo-2,5,7,8-tetrahydro-1H-pyrano[4,3-b]pyridine-3-carboxamid)acetic acid] |
| 37.7 | O=C(O)CNC(=O)c1c(O)c2c(n(Cc3ccc4ccccc4c3)c1=O)CCOC2 [Example 21, 2-(4-hydroxy-1-(naphthalen-2-ylmethyl)-2-oxo-2,5,7,8-tetrahydro-1H-pyrano[4,3-b]pyridine-3-carboxamido)acetic acid] |
| 44.5 | O=C(O)CNC(=O)c1c(O)c2c(n(Cc3ncc(C(F)(F)F)cn3)c1=O)CCOC2 [Example 23, 2-(4-hydroxy-2-oxo-1-((5-(trifluoromethyl)pyrimidin-2-yl)methyl)-2,5,7,8-tetrahydro-1H-pyrano[4,3-b]pyridine-3-carboxamido)acetic acid] |
| 16.8 | O=C(O)CNC(=O)c1c(O)c2c(n(Cc3cc(F)c(F)cc3F)c1=O)CCOC2 [Example 24, 2-(4-Hydroxy-2-oxo-1-(2,4,5-trifluorobenzyl)-2,5,7,8-tetrahydro-1H-pyrano[4,3-b]pyridine-3-carboxamido)acetic acid] |
| 32.6 | Cn1ccc(Cn2c3c(c(O)c(C(=O)NCC(=O)O)c2=O)COCC3)n1 [Example 27, 2-(4-Hydroxy-1-((1-methyl-1H-pyrazol-3-yl)methyl)-2-oxo-2,5,7,8-tetrahydro-1H-pyrano[4,3-b]pyridine-3-carboxamido)acetic acid] |
| 14.5 | Cc1cc(Cn2c3c(c(O)c(C(=O)NCC(=O)O)c2=O)COCC3)ccc1C#N [Example 28, 2-(1-(4-Cyano-3-methylbenzyl)-4-hydroxy-2-oxo-2,5,7,8-tetrahydro-1H-pyrano[4,3-b]pyridine-3-carboxamido)acetic acid] |
| 32.8 | O=C(O)CNC(=O)c1c(O)c2c(n(Cc3cncs3)c1=O)CCOC2 [Example 31, 2-(4-Hydroxy-2-oxo-1-(thiazol-5-ylmethyl)-2,5,7,8-tetrahydro-1H-pyrano[4,3-b]pyridine-3-carboxamido)acetic acid] |
| 29.3 | NC(=O)c1ccc(Cn2c3c(c(O)c(C(=O)NCC(=O)O)c2=O)COCC3)cc1 [Example 34, 2-(1-(4-Carbamoylbenzyl)-4-hydroxy-2-oxo-2,5,7,8-tetrahydro-1H-pyrano[4,3-b]pyridine-3-carboxamido)acetic acid] |
| 15.1 | O=C(O)CNC(=O)c1c(O)c2c(n(Cc3csc(C(F)(F)F)n3)c1=O)CCOC2 [Example 35, 2-(4-Hydroxy-2-oxo-1-((2-(trifluoromethyl)thiazol-4-yl)methyl)-2,5,7,8-tetrahydro-1H-pyrano[4,3-b]pyridine-3-carboxamido)acetic acid] |

Further lines, the molecule ahead of its results:

| SMILES | IC50 [nM] |
| --- | --- |
| CN1Cc2c(c(O)c(C(=O)NCC(=O)O)c(=O)n2Cc2ccc(C(F)(F)F)cc2)CC1=O [Example 3, 2-(4-Hydroxy-7-methyl-2,6-dioxo-1-(4-(trifluoromethyl)benzyl)-1,2,5,6,7,8-hexahydro-1,7-naphthyridine-3-carboxamido)acetic acid] | 6.7 |
| O=C(O)CNC(=O)c1c(O)c2c([nH]c1=O)CCOC2 [Example 4, 2-(4-Hydroxy-2-oxo-2,5,7,8-tetrahydro-1H-pyrano[4,3-b]pyridine-3-carboxamido)acetic acid] | 41.8 |
| N#Cc1ccc(Cn2c3c(c(O)c(C(=O)NCC(=O)O)c2=O)COCC3)cc1 [Example 5, 2-(1-(4-Cyanobenzyl)-4-hydroxy-2-oxo-2,5,7,8-tetrahydro-1H-pyrano[4,3-b]pyridine-3-carboxamido)acetic acid] | 13.9 |
| O=C(O)CNC(=O)c1c(O)c2c(n(Cc3ccc(OC(F)(F)F)cc3)c1=O)CCOC2 [Example 7, 2-(4-hydroxy-2-oxo-1-(4-(trifluoromethoxy)benzyl)-2,5,7,8-tetrahydro-1H-pyrano[4,3-b]pyridine-3-carboxamido)acetic acid] | 10.3 |
| O=C(O)CNC(=O)c1c(O)c2c(n(Cc3ccc(OC(F)F)cc3)c1=O)CCOC2 [Example 8, 2-(1-(4-(difluoromethxoy)benzyl)-4-hydroxy-2-oxo-2,5,7,8-tetrahydro-1H-pyrano[4,3-b]pyridine-3-carboxamido)acetic acid] | 13.4 |
| O=C(O)CNC(=O)c1c(O)c2c(n(Cc3ccc(F)cc3)c1=O)CCOC2 [Example 9, 2-(1-(4-fluorobenzyl)-4-hydroxy-2-oxo-2,5,7,8-tetrahydro-1H-pyrano[4,3-b]pyridine-3-carboxamido)acetic acid] | 13.7 |
| CS(=O)(=O)c1ccc(Cn2c3c(c(O)c(C(=O)NCC(=O)O)c2=O)COCC3)cc1 [Example 11, 2-(4-hydroxy-1-(4-(methylsulfonyl)benzyl)-2-oxo-2,5,7,8-tetrahydro-1H-pyrano[4,3-b]pyridine-3-carboxamido)acetic acid] | 20.2 |
| CC(C)c1ccc(Cn2c3c(c(O)c(C(=O)NCC(=O)O)c2=O)COCC3)cc1 [Example 12, 2-(4-hydroxy-1-(4-isopropylbenzyl)-2-oxo-2,5,7,8-tetrahydro-1H-pyrano[4,3-b]pyridine-3-carboxamido)acetic acid] | 12.5 |
| CC(C)Oc1ccc(Cn2c3c(c(O)c(C(=O)NCC(=O)O)c2=O)COCC3)cc1 [Example 13, 2-(4-hydroxy-1-(4-isopropoxybenzyl)-2-oxo-2,5,7,8-tetrahydro-1H-pyrano[4,3-b]pyridine-3-carboxamido)acetic acid] | 20.5 |
| O=C(O)CNC(=O)c1c(O)c2c(n(Cc3ccc(F)c(F)c3)c1=O)CCOC2 [Example 15, 2-(1-(3,4-difluorobenzyl)-4-hydroxy-2-oxo-2,5,7,8-tetrahydro-1H-pyrano[4,3-b]pyridine-3-carboxamido)acetic acid] | 14.7 |
| CCn1c2c(c(O)c(C(=O)NCC(=O)O)c1=O)COCC2 [Example 19, 2-(1-ethyl-4-hydroxy-2-oxo-2,5,7,8-tetrahydro-1H-pyrano[4,3-b]pyridine-3-carboxamido)acetic acid] | 78.5 |
| O=C(O)CNC(=O)c1c(O)c2c(n(CC3CCCCC3)c1=O)CCOC2 [Example 20, 2-(1-(cyclohexylmethyl)-4-hydroxy-2-oxo-2,5,7,8-tetrahydro-1H-pyrano[4,3-b]pyridine-3-carboxamido)acetic acid] | 76 |
| Cn1c2c(c(O)c(C(=O)NCC(=O)O)c1=O)COCC2 [Example 22, 2-(4-hydroxy-1-methyl-2-oxo-2,5,7,8-tetrahydro-1H-pyrano[4,3-b]pyridine-3-carboxamido)acetic acid] | 56.1 |
| CNC(=O)c1ccc(Cn2c3c(c(O)c(C(=O)NCC(=O)O)c2=O)COCC3)cc1 [Example 26, 2-(4-Hydroxy-1-(4-(methylcarbamoyl)benzyl)-2-oxo-2,5,7,8-tetrahydro-1H-pyrano[4,3-b]pyridine-3-carboxamido)acetic acid] | 30.8 |
| N#Cc1ccc(Cn2c3c(c(O)c(C(=O)NCC(=O)O)c2=O)COCC3)cc1F [Example 29, 2-(1-(4-Cyano-3-fluorobenzyl)-4-hydroxy-2-oxo-2,5,7,8-tetrahydro-1H-pyrano[4,3-b]pyridine-3-carboxamido)acetic acid] | 16 |
| COc1ccc(Cn2c3c(c(O)c(C(=O)NCC(=O)O)c2=O)COCC3)cn1 [Example 30, 2-(4-Hydroxy-1-((6-methoxypyridin-3-yl)methyl)-2-oxo-2,5,7,8-tetrahydro-1H-pyrano[4,3-b]pyridine-3-carboxamido)acetic acid] | 17.4 |
| O=C(O)CNC(=O)c1c(O)c2c(n(Cc3ccn(-c4ccccc4)n3)c1=O)CCOC2 [Example 32, 2-(4-Hydroxy-2-oxo-1-((1-phenyl-1H-pyrazol-3-yl)methyl)-2,5,7,8-tetrahydro-1H-pyrano[4,3-b]pyridine-3-carboxamido)acetic acid] | 12.1 |
| CC(C)(O)c1ccc(Cn2c3c(c(O)c(C(=O)NCC(=O)O)c2=O)COCC3)cc1 [Example 33, 2-(4-Hydroxy-1-(4-(2-hydroxypropan-2-yl)benzyl)-2-oxo-2,5,7,8-tetrahydro-1H-pyrano[4,3-b]pyridine-3-carboxamido)acetic acid] | 49.9 |
| O=C(O)CNC(=O)c1c(O)c2c(n(-c3ccc(OC(F)(F)F)cc3)c1=O)CCOC2 [Example 36, 2-(4-Hydroxy-2-oxo-1-(4-(trifluoromethoxy)phenyl)-2,5,7,8-tetrahydro-1H-pyrano[4,3-b]pyridine-3-carboxamido)acetic acid] | 98.8 |
| O=C(O)CNC(=O)c1c(O)c2c(n(Cc3ccc(Cl)cc3)c1=O)COCC2 [Example 37, 2-(1-(4-Chlorobenzyl)-4-hydroxy-2-oxo-2,5,6,8-tetrahydro-1H-pyrano[3,4-b]pyridine-3-carboxamido)acetic acid] | 50.2 |
| O=C(O)CNC(=O)c1c(O)c2c(n(Cc3ccc(F)cc3F)c1=O)COCC2 [Example 38, 2-(1-(2,4-difluorobenzyl)-4-hydroxy-2-oxo-2,5,6,8-tetrahydro-1H-pyrano[3,4-b]pyridine-3-carboxamido)acetic acid] | 24.1 |

— patent US10000501B2, “Inhibitors of HIF prolyl hydroxylase” (MERCK SHARP & DOHME CORP., priority 2014, dated 2018)
